In one series the test system is Bacillus subtilis. The series can be described thus: In vitro antimicrobial screening, tube dilution method. Format: cell-based. The conditions noted are these: B. substilis, Gram +ve, nutrient broth, 37 ± 1 °C, 24 h, read-out: Minimum inhibitory concentration. As to the method: (§1) The in vitro antimicrobial screening of the synthesized 1,2,4-triazole derivatives (T1–T20) in μM was determined against Gram-positive Bacillus subtilis, […], Gram-negative Escherichia coli bacterium and fungal strains Candida albicans and Aspergillus niger by tube dilution method using ciprofloxacin, amoxycillin (antibacterial) and fluconazole (antifungal) as reference drugs. DMSO was used to dissolve the reference and sample derivatives (T1–T20). Dilutions were prepared in nutrient broth (I.P.) for bacterial (incubated at 37 ± 1 °C for 24 h) and Sabouraud dextrose broth (I.P.) for fungal species (37 ± 1 °C for 48 h for C. albicans) and (25 ± 1 °C for 7 days for A. niger) (Table 3, Figs. 4 and 5).

The next series deals with Escherichia coli. Described as above. Format: cell-based. Particulars: E. coli, Gram −ve, nutrient broth, 37 ± 1 °C, 24 h, read-out: Minimum inhibitory concentration. As to the method: as §1
Another series deals with Pseudomonas aeruginosa. The description is as above. The conditions noted are these: P. aeruginosa, Gram −ve, nutrient broth, 37 ± 1 °C, 24 h, read-out: Minimum inhibitory concentration. Format: cell-based. As to the method:
as §1

Series [1] has as its system Gram-positive (B. subtilis), Gram-negative (P. aeruginosa and E. coli) bacterial strains. The series can be described thus: Tube dilution method, MIC of antibacterial standards quoted without strain. Particulars: antibacterial standard, strain not given. Format: cell-based.
The subject of a further series is Aspergillus niger. The series can be described thus: In vitro antifungal screening, tube dilution method. It is filed as cell-based. The conditions noted are these: A. niger, Sabouraud dextrose broth, 25 ± 1 °C, 7 days, read-out: Minimum inhibitory concentration. As to the method:
as §1

A further series deals with Candida albicans. Described as above. Particulars: Candida albicans; C. albican; Sabouraud dextrose broth, 37 ± 1 °C, 48 h; read-out: Minimum inhibitory concentration. It is filed as cell-based. As to the method: as §1
A short description of series [2]: DPPH free radical scavenging activity. Particulars: for IC50: DPPH antioxidant; for % inhibition: DPPH. As to the method:
In the DPPH free radical scavenging activity, compounds (T1–T20) were evaluated for their free radical scavenging activity with ascorbic acid as standard compound. The scavenging effect increased with the increasing concentrations of sample compounds. DPPH is relatively stable nitrogen centered free radical that easily accepts an electron or hydrogen radical to become a stable diamagnetic molecule. DPPH radicals react with suitable reducing agents as a result of which the electrons become paired off forming the corresponding hydrazine. The solution therefore loses colour stoichometrically depending on the number of electrons taken up. […] The sample solutions were incubated for 30 min at room temperature in dark place and after then absorbance was recorded against the blank solution at 517 nm. The relative percent of DPPH scavenging activity was calculated according to the following equation: I%=Acontrol-Asample/Acontrol×100,
where Acontrol is the absorbance of the control, Asample is the absorbance of the test compound.
Background: The DPPH test is a chemical assay of radical scavenging.

For the next series, the target named is Jack Bean Urease (Canavalia ensiformis, UniProt P07374). The series can be described thus: biochemical. As to the method:
Urease inhibitory potential for each synthesisized compound (T1–T20) was evaluated using Jack Bean Urease by Indophenol method (Table 5, Figs. 9, 10, 11). 250 µl of jack bean urease (4U) was mixed with 250 µl of different synthesized test compounds and standard of different concentrations [dissolved in DMSO/H2O mixture (1:1 v/v)]. The mixture was pre-incubated for 1 h at 37 °C in test tubes. 2 ml of 100 mM phosphate buffer (pH 6.8) containing 500 mM urea and 0.002% phenol red as an indicator were added in sample test tubes after pre incubation and again incubated at room temperature. Absorbance of reaction mixture was recorded by ELISA at 570 nm. Ammonium carbonate increased the pH of phosphate buffer from 6.8 to 7.7 which was produced from urea by urease enzyme and the end peak was measured by the colour of phenol red indicator [16].
The percentage inhibition of urease enzyme was calculated by using following formula: I%=Acontrol-Asample/Acontrol×100,
where Acontrol is the absorbance of the control; Asample is the absorbance of the test compound.

The subject of series [3] is HCT116 (human colon cancer cells). The series can be described thus: Anticancer evaluation, SRB assay. It is filed as cell-based. Particulars: Homo sapiens, HCT-116; HCT116, 72 h, SRB; mean of at least triplicates. As to the method:
HCT116 (human colon cancer cells) were seeded at 2500 cells/well (96 well plate), allowed to attach overnight, exposed to the respective compounds for 72 h and subjected to SRB assay (570 nm). Data represent mean IC50 of at least triplicates. The compounds were all dissolved in DMSO as stock of 100 mg/ml. […] The highest concentration of each compound tested (100 μg/ml) contained only 0.1% DMSO.
In general terms: The SRB assay estimates cell density from bound dye.

By IC50 is commonly meant the concentration needed to halve the response being measured. As usually defined, the % inhibition is the relative decrease from the control value, in per cent. The term pIC50 denotes the negative decadic logarithm of the IC50, by convention in mol/L. Broadly, the inhibition is the drop in the measured response relative to a control, in per cent. The low end stands for little suppression, the high end for strong suppression. As a reminder, the melting point is the temperature of the solid-liquid transition.

Molecules are shown by their SMILES. pIC50: −log10 of the molar value. Converted amounts (≈) assume the structure as drawn. Where two headings read alike, the source gives them in different places.

Chain of Jack Bean Urease (P07374 whole entry, looked up): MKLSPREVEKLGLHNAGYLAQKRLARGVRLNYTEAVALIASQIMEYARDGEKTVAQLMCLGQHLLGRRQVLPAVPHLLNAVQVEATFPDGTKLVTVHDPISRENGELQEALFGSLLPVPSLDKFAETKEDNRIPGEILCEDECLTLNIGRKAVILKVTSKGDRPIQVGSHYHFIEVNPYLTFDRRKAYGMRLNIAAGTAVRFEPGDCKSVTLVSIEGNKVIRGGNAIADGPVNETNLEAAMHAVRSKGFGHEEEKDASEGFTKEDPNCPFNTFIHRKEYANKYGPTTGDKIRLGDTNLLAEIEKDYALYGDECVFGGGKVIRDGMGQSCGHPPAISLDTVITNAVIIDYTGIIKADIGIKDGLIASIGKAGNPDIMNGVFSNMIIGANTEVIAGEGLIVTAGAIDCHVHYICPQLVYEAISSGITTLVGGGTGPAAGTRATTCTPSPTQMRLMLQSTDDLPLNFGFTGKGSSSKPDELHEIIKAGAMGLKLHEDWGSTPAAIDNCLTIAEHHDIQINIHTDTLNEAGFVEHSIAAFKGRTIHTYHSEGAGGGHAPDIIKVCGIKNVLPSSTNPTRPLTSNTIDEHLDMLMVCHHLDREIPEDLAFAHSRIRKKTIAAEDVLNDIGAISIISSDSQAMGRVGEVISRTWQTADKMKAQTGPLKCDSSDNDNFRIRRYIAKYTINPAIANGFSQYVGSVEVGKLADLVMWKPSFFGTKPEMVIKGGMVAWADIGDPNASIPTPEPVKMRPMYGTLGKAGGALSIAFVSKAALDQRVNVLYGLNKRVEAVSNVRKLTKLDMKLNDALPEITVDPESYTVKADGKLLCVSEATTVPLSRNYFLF

For the compound `O=C(O)c1cn(C2CC2)c2cc(N3CCNCC3)c(F)cc2c1=O` [Ciprofloxacin, reference compound], the MIC in the series on Bacillus subtilis was 18.0 µM (≈ 5.96 µg/mL); in the series with Bacillus subtilis (Bacillus subtilis) it was 18 µM (≈ 5.96 µg/mL); with Escherichia coli (Escherichia coli), 37.7 µM (≈ 12.5 µg/mL); with Pseudomonas aeruginosa, 18.0 µM (≈ 5.96 µg/mL); in the series on Pseudomonas aeruginosa (Pseudomonas aeruginosa), 18 µM (≈ 5.96 µg/mL); in series [1], 18.1 µM.
For the compound `CC1(C)S[C@@H]2[C@H](NC(=O)[C@H](N)c3ccc(O)cc3)C(=O)N2[C@H]1C(=O)O` [Amoxicillin, reference compound], the MIC in the series on Bacillus subtilis (Bacillus subtilis) is 17.1 µM (≈ 6.25 µg/mL); with Escherichia coli (Escherichia coli) it was 17.1 µM (≈ 6.25 µg/mL); in the series on Pseudomonas aeruginosa (Pseudomonas aeruginosa), 17.1 µM (≈ 6.25 µg/mL); in series [1] it was 17.1 µM.
`CCCCCCCCCCCCCCCc1nnc(S)n1N=Cc1ccc(C)cc1` [Compound T3] registered a melting point of 190 to 193 °C. Further, in the series on Bacillus subtilis (Bacillus subtilis), the MIC amounted to 58.3 µM (≈ 25 µg/mL). For the same compound, the MIC in the series with Escherichia coli (Escherichia coli) came to 117 µM (≈ 50 µg/mL). Also, the MIC in the series with Pseudomonas aeruginosa (Pseudomonas aeruginosa) was found to be 58.3 µM (≈ 25 µg/mL). In addition, the MIC with Aspergillus niger (Aspergillus niger, 168 h) was 117 µM (≈ 50 µg/mL). Further, the MIC in the series on Candida albicans amounted to 233 µM (≈ 100 µg/mL). Further, in series [2], the IC50 came to 34.38 µg/mL (≈ 80.2 µM). Besides, the “% inhibition” value in series [2] (25 µg/ml) came out at 43.56%. Also, the “% inhibition” value in series [2] (50 µg/ml) amounted to 60.12%. The “% inhibition” value in [2] (75 µg/ml) was determined as 75.67%. Further, the “% inhibition” value in series [2] (100 µg/ml) is recorded as 88.98%. At Jack Bean Urease, this compound gave a pIC50 of 3.90, an inhibition at 25 µg/mL of 28.2%, an inhibition at 50 µg/mL of 50% and an inhibition at 75 µg/mL of 65.9%. Besides, the inhibition at 100 µg/mL at Jack Bean Urease worked out at 79.1%. The pIC50 in series [3] was 4.78.
Compound `CCCCCCCCCCCCCCCc1nnc(S)n1N=Cc1ccc(OC)c(O)c1` [Compound T6] showed a melting point of 189 to 192 °C. The MIC in the series on Bacillus subtilis (Bacillus subtilis) came to 108 µM (≈ 50 µg/mL). In the series on Escherichia coli (Escherichia coli), the MIC amounted to 54.2 µM (≈ 25 µg/mL). Also, the MIC in the series with Pseudomonas aeruginosa (Pseudomonas aeruginosa) was found to be 54.2 µM (≈ 25 µg/mL). Further, the MIC in the series with Aspergillus niger stood at 217.0 µM (≈ 100 µg/mL). Also, in the series with Aspergillus niger (Aspergillus niger, 168 h), the MIC was 217 µM (≈ 100 µg/mL). The MIC with Candida albicans was 108 µM (≈ 50 µg/mL). The IC50 in series [2] amounted to 45.66 µg/mL (≈ 99.1 µM). The “% inhibition” value in series [2] (25 µg/ml) is on record as 31.67%. The “% inhibition” value in [2] (50 µg/ml) was determined as 53.67%. The “% inhibition” value in series [2] (75 µg/ml) came out at 77.78%. Also, the “% inhibition” value in series [2] (100 µg/ml) was determined as 92.67%. In addition, at Jack Bean Urease, the pIC50 was 3.99, the inhibition at 25 µg/mL stood at 38.5%, at 50 µg/mL the inhibition was 50.3% and 75 µg/mL produced 65.6% inhibition. This compound also showed an inhibition at 100 µg/mL against Jack Bean Urease of 80.9%. The compound further showed a pIC50 in series [3] of 3.95.
In the case of `CCCCCCCCCCCCCCCc1nnc(S)n1N=Cc1cccc(Cl)c1` [Compound T10], the melting point lay in the range of 205 to 208 °C. Moreover, the MIC with Bacillus subtilis (Bacillus subtilis) was found to be 55.6 µM (≈ 25 µg/mL). Also, the MIC in the series on Escherichia coli (Escherichia coli) was determined as 111 µM (≈ 50 µg/mL). Also, in the series on Pseudomonas aeruginosa (Pseudomonas aeruginosa), the MIC is 55.6 µM (≈ 25 µg/mL). Besides, the MIC with Aspergillus niger (Aspergillus niger, 168 h) came to 55.6 µM (≈ 25 µg/mL). Also, the MIC in the series on Candida albicans amounted to 223 µM (≈ 100 µg/mL). Also, the IC50 in series [2] is 43.57 µg/mL (≈ 97 µM). Also, the “% inhibition” value in series [2] (25 µg/ml) was 45.56%. Also, in series [2] (50 µg/ml), the “% inhibition” value is 51.56%. Further, the “% inhibition” value in series [2] (75 µg/ml) was 57.57%. Moreover, the “% inhibition” value in series [2] (100 µg/ml) stood at 62.67%. At Jack Bean Urease, this compound gave a pIC50 of 3.94, an inhibition at 25 µg/mL of 27.9%, an inhibition at 50 µg/mL of 46.9% and an inhibition at 75 µg/mL of 70.9%. Also, at Jack Bean Urease, the inhibition at 100 µg/mL worked out at 89.8%. In [3], the pIC50 is 3.76.
With `CCCCCCCCCCCCCCCc1nnc(S)n1N=Cc1ccc(O)cc1` [Compound T8], the melting point is 192 to 195 °C. For the same compound, the MIC in the series with Bacillus subtilis (Bacillus subtilis) was 116 µM (≈ 50 µg/mL). Also, the MIC with Escherichia coli is reported as 58.0 µM (≈ 25 µg/mL). Moreover, the MIC in the series with Escherichia coli (Escherichia coli) came out at 58 µM (≈ 25 µg/mL). In addition, the MIC in the series with Pseudomonas aeruginosa is reported as 58.0 µM (≈ 25 µg/mL). For the same compound, the MIC in the series on Pseudomonas aeruginosa (Pseudomonas aeruginosa) was found to be 58 µM (≈ 25 µg/mL). The MIC in the series on Aspergillus niger (Aspergillus niger, 168 h) stood at 232 µM (≈ 100 µg/mL). In addition, the MIC with Candida albicans came to 116 µM (≈ 50 µg/mL). Besides, the IC50 in series [2] worked out at 36.12 µg/mL (≈ 83.9 µM). In addition, in series [2] (25 µg/ml), the “% inhibition” value came to 43.91%. The “% inhibition” value in series [2] (50 µg/ml) is recorded as 58.67%. Besides, in [2] (75 µg/ml), the “% inhibition” value is listed as 67.54%. The “% inhibition” value in [2] (100 µg/ml) came to 82.57%. Besides, on Jack Bean Urease, the pIC50 was 3.88, the inhibition at 25 µg/mL came out at 22.4%, the inhibition at 50 µg/mL came out at 39.6% and the inhibition at 75 µg/mL was 68.6%. This compound also came in with an inhibition at 100 µg/mL against Jack Bean Urease of 92.7%. The compound further showed a pIC50 in [3] of under 3.63.

Values taken from article PMC7818921, “Synthesis and biological evaluation of heterocyclic 1,2,4-triazole scaffolds as promising pharmacological agents” (BMC Chemistry, 2021).
